# Source: ChEMBL document CHEMBL1157209, “QSAR study on a novel series of 8-azaadenine analogues proposed as A1 adenosine receptor antagonists” (Eur J Med Chem, 2008)
# Molecular target: T1, Adenosine receptor A1 (Bos taurus, UniProt P28190)
# T1 sequence (P28190 whole entry): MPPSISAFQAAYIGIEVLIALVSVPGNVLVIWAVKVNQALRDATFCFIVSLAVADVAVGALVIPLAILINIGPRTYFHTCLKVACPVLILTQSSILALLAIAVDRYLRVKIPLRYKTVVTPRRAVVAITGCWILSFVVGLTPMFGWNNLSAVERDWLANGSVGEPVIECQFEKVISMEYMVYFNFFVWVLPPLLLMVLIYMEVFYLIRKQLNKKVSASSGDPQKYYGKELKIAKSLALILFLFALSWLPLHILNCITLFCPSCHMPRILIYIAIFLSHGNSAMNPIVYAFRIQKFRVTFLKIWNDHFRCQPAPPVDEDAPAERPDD
# Assay: Binding affinity to bovine adenosine A1 receptor
row,Ki [nM],SMILES
1,10.3,O[C@H]1CCCC[C@@H]1Nc1nc(-c2ccccc2)nc2c1nnn2Cc1ccccc1
2,3.1,OC1CCC(Nc2nc(-c3ccccc3)nc3c2nnn3Cc2ccccc2Cl)CC1 (stereo not drawn)
3,1.6,c1ccc(Cn2nnc3c(NC4CCCCC4)nc(-c4ccccc4)nc32)cc1

# Further lines, the compound ahead of its results:
row,SMILES,Ki [nM]
1,OC1CCC(Nc2nc(-c3ccccc3)nc3c2nnn3Cc2ccccc2F)CC1 (stereo not drawn),1.85
2,OC1CCC(Nc2nc(-c3ccccc3)nc3c2nnn3Cc2ccccc2)CC1 (stereo not drawn),2.7
3,COc1ccc(C(=O)Nc2nc(-c3ccccc3)nc3c2nnn3Cc2ccccc2)cc1,3.24
4,COc1ccc(C(=O)Nc2nc(-c3ccccc3)nc3c2nnn3Cc2ccccc2F)cc1,21.9
5,COc1ccc(C(=O)Nc2nc(-c3ccccc3)nc3c2nnn3Cc2ccccc2Cl)cc1,20
